Data from ChEMBL document CHEMBL1201862, “PubChem BioAssay data set” (2004).
The source made the active and inactive calls.

Columns and labels:
Paired box protein Pax-8 = Paired box protein Pax-8 (Homo sapiens, UniProt Q06710); assay: inhibitors of PAX8-driven TPO luciferase reporter, dose response, RMG-I cells, cherry-pick (AID 687027); format: functional, cell-based;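 further: luciferase reporter driven by Pax8 target thyroperoxidase promoter measured by SteadyGlo luminescence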
[1] = A549 cell cytotoxicity, dose response, cytotoxicity control, 24 h, CellTiter-Glo luminescence, cherry-picks (AID 1053115); format: functional, cell-based; conditions: A549, 24 h
Kallikrein-7 = Kallikrein-7 (Homo sapiens, UniProt P49862); assay: Fluorescence Intensity-based biochemical primary high throughput dose response assay to identify activators of kallikrein-7 (K7) zymogen.
Sequence of Kallikrein-7 (P49862 whole entry): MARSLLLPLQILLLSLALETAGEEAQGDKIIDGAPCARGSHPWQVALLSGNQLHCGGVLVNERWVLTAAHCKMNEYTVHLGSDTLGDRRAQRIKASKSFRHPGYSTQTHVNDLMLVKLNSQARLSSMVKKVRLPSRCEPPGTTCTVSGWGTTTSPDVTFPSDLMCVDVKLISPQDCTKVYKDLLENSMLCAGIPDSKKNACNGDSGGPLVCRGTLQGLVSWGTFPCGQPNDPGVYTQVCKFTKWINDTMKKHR

HEK293 = assay: HEK293T cell cytotoxicity, dose response, cytotoxicity control, ATP luminescence, cherry-pick samples (AID 687005); format: functional, cell-based; conditions: Homo sapiens;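 further: cells exposed to compound for 48 hours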
[2] = HEK293 Cytotoxicity Assay Measured in Cell-Based System Using Plate Reader - 7071-01_Inhibitor_Dose_CherryPick_Activity_Set2.; format: functional
[3] = target: T1, Disintegrin and metalloproteinase domain-containing protein 17 (Homo sapiens, UniProt P78536); assay: ADAM17 protease inhibitors, dose response, counter-screen for ADAM10 exosite inhibitor project, biochemical, quenched FRET substrate (AID 743253)
T1 sequence (P78536 whole entry, the tested form may be a part): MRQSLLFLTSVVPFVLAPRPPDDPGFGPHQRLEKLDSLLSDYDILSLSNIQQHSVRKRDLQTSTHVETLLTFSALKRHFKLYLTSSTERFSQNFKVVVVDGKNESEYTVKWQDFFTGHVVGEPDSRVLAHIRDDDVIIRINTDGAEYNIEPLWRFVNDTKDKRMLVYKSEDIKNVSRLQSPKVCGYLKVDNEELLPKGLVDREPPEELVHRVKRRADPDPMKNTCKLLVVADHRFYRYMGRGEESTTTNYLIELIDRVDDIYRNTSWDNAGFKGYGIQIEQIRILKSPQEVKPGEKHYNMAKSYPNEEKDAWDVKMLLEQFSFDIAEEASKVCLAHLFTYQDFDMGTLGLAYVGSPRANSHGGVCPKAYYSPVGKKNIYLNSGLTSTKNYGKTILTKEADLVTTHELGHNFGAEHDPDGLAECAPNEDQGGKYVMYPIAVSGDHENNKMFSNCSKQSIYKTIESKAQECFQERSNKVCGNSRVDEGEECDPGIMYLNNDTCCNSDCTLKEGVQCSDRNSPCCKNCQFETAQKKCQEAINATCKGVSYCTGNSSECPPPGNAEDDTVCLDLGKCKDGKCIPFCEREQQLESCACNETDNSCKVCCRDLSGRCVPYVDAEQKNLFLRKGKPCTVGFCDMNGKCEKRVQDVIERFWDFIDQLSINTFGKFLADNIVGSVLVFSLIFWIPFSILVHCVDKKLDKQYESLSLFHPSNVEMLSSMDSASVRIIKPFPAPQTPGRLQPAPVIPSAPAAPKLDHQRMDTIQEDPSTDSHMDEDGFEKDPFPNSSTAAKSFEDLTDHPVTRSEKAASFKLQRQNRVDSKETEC

[4] = ADAM10 inhibitors, peptide cleavage, dose response, biochemical, QFRET (AID 743254);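 further: ADAM10 enzyme with the DM2 quenched FRET peptide as substrate; EDANS fluorescence gain as the protease cuts the substrate; inhibitor potency against ADAM10 proteolytic activity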
[5] = BHK-21 cell cytotoxicity, cytotoxicity control for flavivirus guanylyltransferase probe project, secondary screen (AID 624078); format: functional
[6] = CEM21 cell cytotoxicity, dose response, cytotoxicity control, plate reader, dry powder (AID 687026); format: functional, cell-based
[7] = inhibitors of clade B AD8 Env fusion, dose response, cell-based, cherry-pick (AID 652062); format: functional;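 further: luciferase signal from cell-cell fusion driven by HIV-1 clade B AD8 Env; potency is for inhibitors of fusion seen as a drop in luminescence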
[8] = ZM109 Env clade C HIV-1 fusion inhibitors, dose response, HeLa effector, CEM target cells, luciferase, cherry-pick (AID 652058); format: functional, cell-based
Estrogen receptor beta = Estrogen receptor beta (Homo sapiens, UniProt Q92731);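 further: recombinant ER-beta bound to coactivator SRC1 peptide in presence of estradiol agonist; inhibitors block coactivator peptide binding and lower the FRET signal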
Sequence of Estrogen receptor beta (Q92731 whole entry): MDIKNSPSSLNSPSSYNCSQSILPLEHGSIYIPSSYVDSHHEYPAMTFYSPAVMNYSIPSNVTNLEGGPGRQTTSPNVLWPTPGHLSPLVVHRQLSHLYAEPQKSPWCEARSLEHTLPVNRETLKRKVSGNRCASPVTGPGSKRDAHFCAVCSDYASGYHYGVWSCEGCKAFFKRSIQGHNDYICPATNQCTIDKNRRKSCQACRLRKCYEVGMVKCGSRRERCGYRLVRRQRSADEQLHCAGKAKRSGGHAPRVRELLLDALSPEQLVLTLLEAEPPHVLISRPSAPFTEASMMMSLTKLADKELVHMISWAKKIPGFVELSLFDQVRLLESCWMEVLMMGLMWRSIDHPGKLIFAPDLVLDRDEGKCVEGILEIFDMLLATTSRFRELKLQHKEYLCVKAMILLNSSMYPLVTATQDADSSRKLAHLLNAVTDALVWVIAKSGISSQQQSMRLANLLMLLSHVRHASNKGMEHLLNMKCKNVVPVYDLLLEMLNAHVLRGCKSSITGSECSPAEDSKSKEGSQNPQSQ

cells [9] = format: functional, cell-based; conditions: HEK-CNG
[10] = inhibitors of HIV Env-driven cell fusion, dose response, cherry-pick (AID 652057); format: functional, cell-based
[11] = HIV Env cell-cell fusion inhibitors, dose response, HIV entry, plate reader, dry powder (AID 687023); format: functional, cell-based
Galanin receptor type 3 = Galanin receptor type 3 (Homo sapiens, UniProt O60755); assay: Fluorescence-based cell-based primary high throughput dose response assay to identify antagonists of the Galanin Receptor 3 (GalR3).; format: functional
Sequence of Galanin receptor type 3 (O60755 whole entry): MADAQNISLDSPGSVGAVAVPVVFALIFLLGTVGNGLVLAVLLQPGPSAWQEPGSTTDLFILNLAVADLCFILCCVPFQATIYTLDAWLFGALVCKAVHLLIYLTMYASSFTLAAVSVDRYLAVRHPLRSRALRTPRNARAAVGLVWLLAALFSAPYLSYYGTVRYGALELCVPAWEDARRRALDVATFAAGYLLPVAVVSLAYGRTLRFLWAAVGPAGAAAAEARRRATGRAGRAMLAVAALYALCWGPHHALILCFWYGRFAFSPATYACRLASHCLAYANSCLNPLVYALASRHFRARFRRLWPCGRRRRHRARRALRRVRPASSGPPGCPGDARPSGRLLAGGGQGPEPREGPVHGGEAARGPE

Caspase-6 = target: T2, Caspase-6 (Homo sapiens, UniProt P55212); assay: human caspase-6 inhibitors, dose response, biochemical, VEID-R110 fluorescence, cherry-pick (AID 720632)
T2 sequence (P55212 whole entry): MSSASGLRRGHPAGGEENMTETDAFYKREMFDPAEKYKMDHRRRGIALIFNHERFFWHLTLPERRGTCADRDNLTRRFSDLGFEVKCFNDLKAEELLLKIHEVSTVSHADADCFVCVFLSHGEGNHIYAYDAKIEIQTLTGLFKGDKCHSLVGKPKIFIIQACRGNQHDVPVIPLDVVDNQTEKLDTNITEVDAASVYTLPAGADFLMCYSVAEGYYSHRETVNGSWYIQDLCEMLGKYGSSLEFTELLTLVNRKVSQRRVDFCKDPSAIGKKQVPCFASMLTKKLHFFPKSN

[12] = target: T3, Sentrin-specific protease 8 (Homo sapiens, UniProt Q96LD8); format: functional
T3 sequence (Q96LD8 whole entry): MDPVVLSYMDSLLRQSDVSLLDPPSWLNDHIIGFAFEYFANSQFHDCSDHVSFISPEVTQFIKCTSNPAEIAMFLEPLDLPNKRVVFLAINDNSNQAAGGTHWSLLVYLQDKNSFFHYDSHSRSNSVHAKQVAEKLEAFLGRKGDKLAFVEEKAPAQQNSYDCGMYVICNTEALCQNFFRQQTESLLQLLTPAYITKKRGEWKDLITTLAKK

Caspase-8 = Caspase-8 (Homo sapiens, UniProt Q14790); assay: caspase-8 inhibition counter-screen, dose response, selectivity assay for caspase-6 inhibitor project, biochemical, Z-IETD-R110 fluorescence, cherry-picked samples (AID 743294)
Sequence of Caspase-8 (Q14790 217-374 limits assumed): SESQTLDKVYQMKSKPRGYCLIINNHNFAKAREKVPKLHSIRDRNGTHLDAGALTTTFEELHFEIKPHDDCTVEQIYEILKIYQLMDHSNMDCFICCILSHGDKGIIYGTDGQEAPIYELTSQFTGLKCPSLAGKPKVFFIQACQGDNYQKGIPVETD
Sequence of Caspase-8 (Q14790 385-479 limits assumed): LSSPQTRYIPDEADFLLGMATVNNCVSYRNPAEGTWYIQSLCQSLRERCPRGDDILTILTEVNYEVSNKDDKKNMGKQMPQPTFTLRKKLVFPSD

[13] = target: T3, Sentrin-specific protease 8; format: functional; remark: listed apart in the source
Caspase-7 = Caspase-7 (Homo sapiens, UniProt P55210); assay: human caspase-7 inhibitors, dose response, selectivity assay for caspase-6 inhibitor project, biochemical, DEVD-R110 fluorescence, cherry-pick (AID 743295)
Sequence of Caspase-7 (P55210 24-198 limits assumed): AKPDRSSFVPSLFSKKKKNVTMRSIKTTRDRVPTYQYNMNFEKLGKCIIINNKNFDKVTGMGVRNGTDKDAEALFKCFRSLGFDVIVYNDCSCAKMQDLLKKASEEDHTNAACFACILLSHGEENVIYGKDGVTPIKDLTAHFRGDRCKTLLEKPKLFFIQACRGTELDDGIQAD
Sequence of Caspase-7 (P55210 207-303 limits assumed): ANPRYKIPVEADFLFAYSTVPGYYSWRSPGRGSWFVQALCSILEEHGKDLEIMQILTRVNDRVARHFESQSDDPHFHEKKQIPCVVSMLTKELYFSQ

Caspase-9 = Caspase-9 (Homo sapiens, UniProt P55211); assay: caspase-9 enzyme inhibition, dose response, selectivity assay for caspase-6 inhibitor project, biochemical, fluorescence, plate reader, cherry-picked samples (AID 743293)
Sequence of Caspase-9 (P55211 1-315 limits assumed): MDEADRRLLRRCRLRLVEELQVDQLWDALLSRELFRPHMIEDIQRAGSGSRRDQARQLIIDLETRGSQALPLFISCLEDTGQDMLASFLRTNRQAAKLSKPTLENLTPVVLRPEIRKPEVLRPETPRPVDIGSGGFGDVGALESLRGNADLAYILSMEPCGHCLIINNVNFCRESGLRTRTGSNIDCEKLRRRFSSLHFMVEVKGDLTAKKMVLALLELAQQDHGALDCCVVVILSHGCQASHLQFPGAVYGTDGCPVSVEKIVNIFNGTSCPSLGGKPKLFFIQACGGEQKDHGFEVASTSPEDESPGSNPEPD
Sequence of Caspase-9 (P55211 331-416 limits assumed): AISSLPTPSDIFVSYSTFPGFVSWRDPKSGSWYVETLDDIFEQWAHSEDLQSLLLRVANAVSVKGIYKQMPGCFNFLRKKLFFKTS

Caspase-3 = target: T4, Caspase-3 (Homo sapiens, UniProt P42574); assay: caspase-3 enzyme inhibitors, selectivity check, dose response, selectivity assay for caspase-6 allosteric inhibitor project, biochemical, fluorescence, cherry-picked samples (AID 743291)
T4 sequence (P42574 whole entry): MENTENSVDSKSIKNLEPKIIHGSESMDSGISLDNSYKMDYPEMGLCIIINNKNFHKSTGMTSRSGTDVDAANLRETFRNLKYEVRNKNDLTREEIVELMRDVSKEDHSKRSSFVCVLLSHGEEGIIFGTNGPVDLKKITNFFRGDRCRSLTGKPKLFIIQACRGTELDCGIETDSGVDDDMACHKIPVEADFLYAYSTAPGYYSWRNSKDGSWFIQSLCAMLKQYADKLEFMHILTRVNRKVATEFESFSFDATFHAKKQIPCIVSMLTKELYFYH

[14] = MITF Orthogonal Assay: SK-MEL-5 CTG Assay Measured in Cell-Based System Using Plate Reader - 2084-02_Inhibitor_Dose_DryPowder_Activity_Set7.; format: functional
[15] = MITF: Counter assay: A375 proliferation Measured in Cell-Based System Using Plate Reader - 2084-03_Inhibitor_Dose_DryPowder_Activity_Set8.; format: functional; conditions: A-375
[16] = TRPM1 promoter luciferase reporter signal decrease, dose response, MITF inhibitor project, cell-based, SK-MEL-5, dry powder, set 8 (AID 624430); format: functional
[17] = ADAM10 protease inhibitors, dose response, selectivity assay for ADAM17 exosite inhibitor project, biochemical, FRET peptide substrate, recombinant human ADAM10 (AID 743259);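 further: ADAM10 enzyme cleaving a FRET peptide substrate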
[18] = target: T1, Disintegrin and metalloproteinase domain-containing protein 17; assay: exosite inhibitors of ADAM17, dose response, biochemical (AID 743260)
[19] = Luminescence Cell-Based Dose Retest to Confirm Inhibitors of Cancer Stem Cells. [Related pubchem assays (depositor defined):AID2717, AID2721]; format: functional; conditions: Homo sapiens
cells [20] = conditions: HEK293;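 further: cells exposed to compound for 48 hours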
cells [21] = conditions: A549
[22] = HepG2 cell cytotoxicity, dose response, cytotoxicity control, ATP luminescence, cherry-pick, set 6 (AID 1053125); format: functional, cell-based
cells [23] = assay: cells
[24] = inhibitors of non-replicating M. tuberculosis, dose response, luciferase, dry powder (AID 651619); format: functional; conditions: Mycobacterium tuberculosis
[25] = inhibitors of non-replicating M. tuberculosis, dose response, luciferase, dry powder (AID 651620); format: functional; conditions: Mycobacterium tuberculosis
[26] = target: T5, Oxysterols receptor LXR-beta (Homo sapiens, UniProt P55055); format: functional, cell-based;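 further: agonist activity at LXR measured by a cell-based luminescence readout across a dose range, run as a counterscreen for daf-12 agonists; HEK293 cells with Gal4-LXR fusion and GAL4-driven luciferase reporter; potency for activation of Gal4-LXR reporter so compounds are agonists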
T5 sequence (P55055 whole entry): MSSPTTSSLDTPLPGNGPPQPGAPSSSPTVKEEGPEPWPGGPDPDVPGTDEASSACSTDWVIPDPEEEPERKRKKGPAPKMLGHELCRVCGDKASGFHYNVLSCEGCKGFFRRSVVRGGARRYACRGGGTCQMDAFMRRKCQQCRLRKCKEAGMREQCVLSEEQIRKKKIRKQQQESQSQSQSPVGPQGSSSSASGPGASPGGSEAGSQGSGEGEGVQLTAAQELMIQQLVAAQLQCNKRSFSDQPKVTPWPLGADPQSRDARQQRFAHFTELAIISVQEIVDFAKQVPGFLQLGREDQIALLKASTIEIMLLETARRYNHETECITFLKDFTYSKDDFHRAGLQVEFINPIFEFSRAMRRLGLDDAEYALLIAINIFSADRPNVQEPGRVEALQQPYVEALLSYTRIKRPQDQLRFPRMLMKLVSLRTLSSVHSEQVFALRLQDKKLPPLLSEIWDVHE

cells [27] = format: functional
[28] = THP-1 cell cytotoxicity, dose response, cytotoxicity control for non-replicating M. tuberculosis project (AID 489025); format: functional
[29] = HepG2 cell cytotoxicity, dose response, cytotoxicity control for non-replicating M. tuberculosis project (AID 489018); format: functional; conditions: Mycobacterium tuberculosis
fMet-Leu-Phe receptor = fMet-Leu-Phe receptor (Homo sapiens, UniProt P21462); assay: FPR ligands, dose response (AID 519); format: functional
Sequence of fMet-Leu-Phe receptor (P21462 whole entry): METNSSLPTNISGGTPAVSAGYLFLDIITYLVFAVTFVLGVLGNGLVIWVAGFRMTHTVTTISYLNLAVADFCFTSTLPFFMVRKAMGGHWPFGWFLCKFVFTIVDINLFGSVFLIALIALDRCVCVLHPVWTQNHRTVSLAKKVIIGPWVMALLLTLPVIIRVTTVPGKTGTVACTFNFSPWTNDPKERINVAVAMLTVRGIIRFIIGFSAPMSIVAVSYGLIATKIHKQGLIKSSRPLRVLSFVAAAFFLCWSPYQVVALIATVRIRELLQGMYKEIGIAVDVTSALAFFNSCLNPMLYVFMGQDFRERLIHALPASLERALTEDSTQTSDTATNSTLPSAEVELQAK

[30] = Vero E6 cell cytotoxicity, dose response, cytotoxicity control for non-replicating M. tuberculosis project, secondary assay (AID 492998); format: functional, VeroE6; conditions: Vero C1008

Sequence of Paired box protein Pax-8 (Q06710 whole entry): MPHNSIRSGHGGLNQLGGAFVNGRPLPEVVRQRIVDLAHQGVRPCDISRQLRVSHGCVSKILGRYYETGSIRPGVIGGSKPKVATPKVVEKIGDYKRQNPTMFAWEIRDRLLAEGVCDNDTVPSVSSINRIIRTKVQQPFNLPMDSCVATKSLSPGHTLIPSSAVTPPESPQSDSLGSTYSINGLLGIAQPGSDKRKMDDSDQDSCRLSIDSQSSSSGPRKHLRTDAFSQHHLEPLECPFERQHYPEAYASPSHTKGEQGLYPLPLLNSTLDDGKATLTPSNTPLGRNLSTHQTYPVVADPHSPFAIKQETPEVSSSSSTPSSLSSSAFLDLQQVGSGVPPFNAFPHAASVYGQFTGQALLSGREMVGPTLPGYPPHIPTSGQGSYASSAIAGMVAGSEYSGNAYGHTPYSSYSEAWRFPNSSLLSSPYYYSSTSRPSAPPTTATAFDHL

## Cc1ccc(S(=O)(=O)Nc2cccc3c2O[C@@H](CN(C)C(=O)Nc2ccc(C(F)(F)F)cc2)[C@@H](C)CN([C@H](C)CO)C3=O)cc1
Paired box protein Pax-8
  AC50: 12.6 µM (active)
[1]
  AC50: 42.6 µM (active)

## COc1ccc(OC)c(/C=C/C(=O)NCCc2nc3ccccc3[nH]2)c1
Kallikrein-7
  EC50: > 69.5 µM (inactive)

## Cc1ccc(S(=O)(=O)Nc2ccc3c(c2)C(=O)N([C@@H](C)CO)C[C@@H](C)[C@@H](CN(C)S(=O)(=O)c2ccc(Cl)cc2)OCCCC[C@H](C)O3)cc1
HEK293
  AC50: 24.4 µM (active)
[2]
  AC50: 24.4 µM (active)

## Cc1cccc(C)c1-c1ccc(CN2C(CC(C)C)C(=O)N(Cc3cn(CCO)nn3)CCS2(=O)=O)cc1 (stereo unspecified)
[3]
  IC50: > 69.5 µM (inactive)
[4]
  IC50: 12.3 µM (inactive)

## O=[N+]([O-])c1cccc(S(=O)(=O)Nc2cc(SCc3ccccc3)c(O)c3ccccc23)c1
[5]
  CC50: 14.9 µM (active)

## Cc1oc(-c2ccc(Cl)cc2)nc1CN1CCCC(C(=O)NCc2cccnc2)C1 (stereo unspecified)
[6]
  AC50: > 70 µM (inactive)
[7]
  AC50: 4.75 µM (active)
[8]
  AC50: < 0.26 µM (active)
Estrogen receptor beta
  IC50: > 50 µM (not active)
Cells [9]
  EC50: > 29.9 µM (inactive)
[10]
  AC50: 4.1 µM (active)
[11]
  AC50: 3.91 µM (active)
Galanin receptor type 3
  IC50: 2 µM (active)

## O=C1Cc2ccccc2C(=O)N1
Caspase-6
  AC50: 1.22 µM (active)
[12]
  IC50: 0.702 µM (active)
Caspase-8
  AC50: 1.09 µM (active)
[13]
  IC50: 0.0408 µM (active)
Caspase-7
  AC50: 1.32 µM (active)
Caspase-9
  AC50: 1.34 µM (active)
Caspase-3
  AC50: 0.74 µM (active)

## CCN1CCN(C2=C(Nc3ccc(F)cc3)C(=O)c3ccccc3C2=O)CC1
[14]
  AC50: 11.9 µM (active)
[15]
  AC50: > 70 µM (inactive)
[16]
  AC50: 3.49 µM (active)

## Nc1cc(Cl)ccc1Oc1ccc2ccccc2c1
[17]
  IC50: 29.6 µM (inactive)
[18]
  IC50: > 69.5 µM (inactive)
[19]
  AC50: 5.81 µM (active)

## CN1CCc2c(sc(NC(=O)c3cc(Cl)sc3Cl)c2C(N)=O)C1
Cells [20]
  AC50: 33.7 µM (active)
Cells [21]
  AC50: > 52 µM (inactive)
[22]
  AC50: > 52 µM (inactive)
Cells [23]
  AC50: 19.9 µM (active)

## c1ccc(CSc2nnc(-c3cccnc3)o2)nc1
[24]
  IC90: 16 µM (active)
[25]
  IC90: 16 µM (active)

## Cc1cc(NC(=O)c2nn3cccnc3c2Cl)no1
[26]
  EC50: > 67.5 µM (inactive)

## Cc1nn2c(=O)c3c([nH]c2c1-c1ccc(Cl)cc1)CCC3
Cells [27]
  IC50: 10.3 µM (active)
[28]
  CC50: 11.2 µM (active)
[29]
  CC50: 14.9 µM (active)
fMet-Leu-Phe receptor
  Ki: 14.1 µM (active)
[30]
  CC50: 14.1 µM (active)
